# Data from patent US12428360B2, “Abating unwanted emulsion polymerization during extractive distillation of conjugated diene monomers” (ECOLAB USA INC., priority 2022, dated 2025).
# Assay: Isoprene polymerization test at 95° C. in heptane (heptane phase, turbidity method)
# Procedure: The commercial isoprene was passed through an alumina column to remove stabilizer 4-tert-butylcatechol. A 100 mL jar was charged with 0.2 g active polymerization inhibitor, 40 mL heptane, 40 mL DMF, and a stir bar. The above mixture was stirred at room temperature for 30 minutes and settled for 10 minutes.
# Heptane phase: A 100 mL jar was charged with 5.0 mL top layer of previous settled two layers' mixture, 1 mL AIBN (0.0004 g/mL) solution, isoprene 50 g. Hexane was added to make a total weight of 100 g solution. About 13 ml of the above mixture was added to 12 pressure tubes with a stir bar and heated to 95° C. After 30 minutes, and every 30 minutes thereafter, two tubes were retrieved from the block and the polymerization reaction was quenched by cooling in an ice bath. The cooled polymer solutions were immediately diluted with toluene. The soluble polymer in the liquid was determined by turbidity method. Results can be seen in FIG. 2. The data used to generate the trend lines in FIG. 2 can be seen in Table 2.
smiles,measurement,setting,value
"CCC(C)Nc1ccc(NC(C)CC)cc1 (stereo not shown) [PDA, di-sec-butyl-4,4′-phenylenediamine]",polymerization growth in Heptane phase (polyisoprene),"Time 0, AIBN initiator",0 w/w %
same,polymerization growth in Heptane phase (polyisoprene),"Time 30 (minutes per method), AIBN initiator",0.10% w/w %
same,polymerization growth in Heptane phase (polyisoprene),"Time 60 (minutes per method), AIBN initiator",0.24% w/w %
same,polymerization growth in Heptane phase (polyisoprene),"Time 90 (minutes per method), AIBN initiator",0.45% w/w %
same,polymerization growth in Heptane phase (polyisoprene),"Time 120 (minutes per method), AIBN initiator",0.83% w/w %
same,polymerization growth in Heptane phase (polyisoprene),"Time 180 (minutes per method), AIBN initiator",1.05% w/w %
same,polymerization growth in Heptane phase (polyisoprene),"Time 240 (minutes per method), AIBN initiator",1.20% w/w %
